Earlier results in patent US7824714B2, “Chinese herb extract for treating dementia and preparation method thereof” (Development Center for Biotechnology, priority 2008, dated 2010).

Legend:
[1] = test system: mice having scopolamine dementia and Aβ dementia
[2] = test system: brain cells; settings: animal experiments

OC[C@H]1O[C@@H](Oc2c(O)cc(O)cc2C=Cc2ccc(O)cc2)[C@H](O)[C@@H](O)[C@@H]1O [stilbene glucoside compound, 3,4′,5-trihydroxy-2-stilbenyl beta-D-glucoside]
memory capacity [1]: increasing
damage of brain cells caused by β-amyloid protein and hydrogen peroxide [2]: capable of preventing
